In article PMC11858513, “Antibiofilm Activities of Tritrpticin Analogs Against Pathogenic Pseudomonas aeruginosa PA01 Strains” (Molecules, 2025):
Values after ≈ are worked out from the molar mass of the structure shown. Like-named read-outs stand apart in the source and are kept apart here. Residues, ends and D or L forms follow the SMILES beside them.

Tests used:
P. aeruginosa PAO1 GFP [1] = assay: MIC against planktonic cells, absorbance at 600 nm; assay type: cell-based, Pseudomonas aeruginosa; conditions: Table 2, BM2 medium, absorbance 600 nm, mean of three biological replicates
Experimental: (§1) Figure 1 The MIC (A), MBIC (B) and MBEC (C) values for the tritrpticin analog peptides were assessed against Pa PAO1 GFP. The MIC values were determined by measuring the absorbance of bacterial cells at 600 nm. The MBIC and MBEC values were determined by recording the fluorescence at 480 nm and 530 nm from the biofilms of GFP-expressing PAO1. Three biological replicates were run for each test sample, and the mean was calculated for the recorded absorption or fluorescence values. In the graphs, the error bars represent the standard deviation (±SD).
(§2) Figure 2 The MIC (A), MBIC (B) and MBEC (C) values for the tritrpticin-Lys derivative peptides were assessed against Pa PAO1 GFP. The MIC values were determined by measuring the absorbance of bacterial cells at 600 nm. The MBIC and MBEC values were determined by recording the fluorescence at 480 nm and 530 nm from the biofilms of GFP-expressing PAO1. Three replicates were run for each sample, the values were averaged and the error bars represent the standard deviation (±SD).
(§3) The methods to determine the MIC, MBIC and MBEC have been described in detail in our previous publication. The green fluorescent protein (GFP)-producing P. aeruginosa and S. aureus strains that were used in this work were also described in the earlier publication. Fluorescence detection was used as the main method to estimate the number of cells entrapped in the biofilm matrix. The methodology used for evaluation of the antibiofilm properties against an original Pseudomonas PA01 strain by crystal violet dye staining and the use of the Calgary biofilm device has been described elsewhere. The regular PA01 strain was provided by Dr. J. Harrison, Calgary. All measurements were carried out on an Eppendorf AF2200 plate reader. Every 96-well plate included controls for bacterial cell growth without peptide treatment and media alone. All measurements were carried out in triplicate, and the values in the figures represent the average and the error bars are standard deviation.

S. aureus GFP [2] = assay: MBEC, GFP fluorescence method; assay type: cell-based, Staphylococcus aureus; conditions: Table 4, Sa GFP, 10% TSB and 0.1% glucose, mean of three biological replicates
Experimental: as §1, with “3” for “1”, “Sa” for “Pa PAO1”, “Sa.” for “PAO1.”
as §3

P. aeruginosa PAO1 GFP [3] = assay: MBIC, prevention of biofilm formation, GFP fluorescence method; assay type: cell-based, Pseudomonas aeruginosa; conditions: Table 2, BM2 medium, mean of three biological replicates
Experimental: as §1, §2, §3

S. aureus GFP [4] = assay type: cell-based, Staphylococcus aureus; conditions: Table 4; Sa GFP; lowest concentration of peptide with no bacterial growth seen on the spot agar plate
From the text: as §3

P. aeruginosa PAO1 GFP [5] = assay: MBEC, biofilm eradication, GFP fluorescence method; assay type: cell-based, Pseudomonas aeruginosa; conditions: Table 2, BM2 medium, mean of three biological replicates
Experimental: as §1, §2, §3

S. aureus GFP [6] = assay: MBIC, GFP fluorescence method; assay type: cell-based, Staphylococcus aureus; conditions: Table 4, Sa GFP, 10% TSB and 0.1% glucose, mean of three biological replicates
Experimental: as §1, with “3” for “1”, “Sa” for “Pa PAO1”, “Sa.” for “PAO1.”
as §3

P. aeruginosa PAO1 [7] = assay type: cell-based, Pseudomonas aeruginosa; conditions: Table 5; PAO1, 1x BM2; biofilms on pegs, cells plated and counted; three biological replicates
Experimental: (§4) We note the close agreement with the MBIC and MBEC values determined by the fluorescence and CV methods, similar to what we found in our previous work for an S. aureus MRSA strain [23]. We also re-evaluated the MBEC values that are measured using the Calgary biofilm device (CBD), where biofilms form on pegs, rather than at the bottom of the 96-well plates. […] In particular, we find that the single Pro9Ala Tritrp-P9A-substituted version has better MIC, MBIC and MBEC activities than the parent peptide as well as the Tritrp-P59A analog with both prolines substituted to Ala.
Figure 5 The MBEC values for the peptides were assessed against P. aeruginosa PAO1 in the presence of 1× BM2 medium. The eradication of biofilm cells was determined for the peptides using the counting of biofilm cells formed by Pa PAO1. Three biological replicates were run for each test sample, and the mean was calculated for counted cell values. Data points with error bars indicate the standard deviation (±SD).
as §3

P. aeruginosa PAO1 [8] = assay type: cell-based, Pseudomonas aeruginosa; conditions: Table 5; regular PAO1 (no GFP), 1x BM2; absorbance 600 nm; mean of three biological replicates
Experimental: (§5) Figure 4 The MIC (A), MBIC (B) and MBRC (C) values for the peptides were assessed against P. aeruginosa PAO1 in the presence of 1× BM2. The inhibition of planktonic cells, the inhibition of biofilm cells and the reduction in biofilm cells were determined for the peptides by recording of the planktonic cells at 600 nm and quantification of biofilms formed by Pa PAO1 using crystal violet at 595 nm, respectively. Three biological replicates were run for each test sample, and the mean was calculated for the recorded absorption values. Data points with error bars indicate the standard deviation (±SD).
(§6) Figure 6 The MIC (A), MBIC (B) and MBEC (C) values for the tritrpticin-Lys derivatives against P. aeruginosa PAO1 were assessed by the crystal violet (CV) assay for the measurement of inhibition of biofilm formation and eradication of biofilm cells, respectively. The biofilm cells were rinsed, stained with 0.1% crystal violet for 15 min and then rinsed again. The CV was released from biofilm cells by the addition of 95% ethanol and quantified by reading on a spectrometer at 595 nm. Three replicates were run for each sample, the values were averaged and the error bars represent the standard deviation (±SD).
as §3

P. aeruginosa PAO1 [9] = assay type: cell-based; conditions: for MBRC (CV at 595 nm) LD90: minimum biofilm reduction concentration
Experimental: as §4, §5, §6, §3

S. aureus GFP [10] = assay: MIC against planktonic cells, absorbance at 600 nm; assay type: cell-based, Staphylococcus aureus; conditions: Table 4; Sa GFP, 10% TSB and 0.1% glucose; absorbance 600 nm; mean of three biological replicates
Experimental: as §1, with “3” for “1”, “Sa” for “Pa PAO1”, “Sa.” for “PAO1.”
as §3

[11] = Table 5, PAO1, 1x BM2, crystal violet at 595 nm, mean of three biological replicates

Row | SMILES | MIC at 600 nm LD50 (P. aeruginosa PAO1 GFP [1]) | MIC at 600 nm LD90 (P. aeruginosa PAO1 GFP [1]) | MBEC at 488 and 530 nm LD50 (S. aureus GFP [2]) | MBEC at 488 and 530 nm LD90 (S. aureus GFP [2]) | MBIC at 488 and 530 nm LD50 (P. aeruginosa PAO1 GFP [3]) | MBIC at 488 and 530 nm LD90 (P. aeruginosa PAO1 GFP [3]) | MBC Agar Plate (S. aureus GFP [4]) | MBEC at 488 and 530 nm LD50 (P. aeruginosa PAO1 GFP [5]) | MBEC at 488 and 530 nm LD90 (P. aeruginosa PAO1 GFP [5]) | MBIC at 488 and 530 nm LD50 (S. aureus GFP [6]) | MBIC at 488 and 530 nm LD90 (S. aureus GFP [6]) | MBEC from Calgary Biofilm Device (CBD) LD50 (P. aeruginosa PAO1 [7]) | MBEC from Calgary Biofilm Device (CBD) LD90 (P. aeruginosa PAO1 [7]) | MIC at 600 nm LD50 (P. aeruginosa PAO1 [8]) | MIC at 600 nm LD90 (P. aeruginosa PAO1 [8]) | MBRC (CV at 595 nm) LD50 (P. aeruginosa PAO1 [9]; PAO1) | MBIC (CV at 595 nm) LD90 (P. aeruginosa PAO1 [9]; [11]) | MBRC (CV at 595 nm) LD90 (P. aeruginosa PAO1 [9]; [11]) | MIC at 600 nm LD50 (S. aureus GFP [10]) | MIC at 600 nm LD90 (S. aureus GFP [10]) | also measured
1 | CC(C)C[C@H](NC(=O)[C@H](Cc1ccccc1)NC(=O)[C@@H]1CCCN1C(=O)[C@H](Cc1c[nH]c2ccccc12)NC(=O)[C@H](Cc1c[nH]c2ccccc12)NC(=O)[C@H](Cc1c[nH]c2ccccc12)NC(=O)[C@H](C)NC(=O)[C@H](Cc1ccccc1)NC(=O)[C@H](CCCNC(=N)N)NC(=O)[C@H](CCCNC(=N)N)NC(=O)[C@@H](N)C(C)C)C(=O)N[C@@H](CCCNC(=N)N)C(=O)N[C@@H](CCCNC(=N)N)C(N)=O [Tritrp-P5A] (H-VRRFAWWWPFLRR-NH2) | 4 µM (≈ 7.5 µg/mL) | 8 µM (≈ 15 µg/mL) | 2 µmol/L | 4 µmol/L | 4 µmol/L | 8 µmol/L | 4 µM (≈ 7.5 µg/mL) | 64 µmol/L | 64 µmol/L | 1 µmol/L | 4 µmol/L | 32 µmol/L | 128 µmol/L | 4 µM (≈ 7.5 µg/mL) | 8 µM (≈ 15 µg/mL) | 32 µmol/L | 8 µmol/L | 32 µmol/L | 1 µM (≈ 1.88 µg/mL) | 2 µM (≈ 3.75 µg/mL) | MBIC (CV at 595 nm) LD50 (P. aeruginosa PAO1 [9]; [11]): 8 µmol/L
2 | CC(C)C[C@H](NC(=O)[C@H](Cc1ccccc1)NC(=O)[C@H](C)NC(=O)[C@H](Cc1c[nH]c2ccccc12)NC(=O)[C@H](Cc1c[nH]c2ccccc12)NC(=O)[C@H](Cc1c[nH]c2ccccc12)NC(=O)[C@H](C)NC(=O)[C@H](Cc1ccccc1)NC(=O)[C@H](CCCCN)NC(=O)[C@H](CCCCN)NC(=O)[C@@H](N)C(C)C)C(=O)N[C@@H](CCCCN)C(=O)N[C@@H](CCCCN)C(N)=O [Tritrp-P59A-Lys] (H-VKKFAWWWAFLKK-NH2) | 4 µM (≈ 6.95 µg/mL) | 4 µM (≈ 6.95 µg/mL) | 2 µmol/L | 4 µmol/L | 4 µmol/L | 4 µmol/L | 4 µM (≈ 6.95 µg/mL) | 32 µmol/L | 128 µmol/L | 2 µmol/L | 2 µmol/L | 64 µmol/L | 128 µmol/L | 4 µM (≈ 6.95 µg/mL) | 8 µM (≈ 13.9 µg/mL) | 64 µmol/L | 8 µmol/L | 64 µmol/L | 2 µM (≈ 3.47 µg/mL) | 2 µM (≈ 3.47 µg/mL) | MBIC (CV at 595 nm) LD50 (P. aeruginosa PAO1 [9]; [11]): 4 µmol/L
3 | CC(C)C[C@H](NC(=O)[C@H](Cc1ccccc1)NC(=O)[C@@H]1CCCN1C(=O)[C@H](Cc1c[nH]c2ccccc12)NC(=O)[C@H](Cc1c[nH]c2ccccc12)NC(=O)[C@H](Cc1c[nH]c2ccccc12)NC(=O)[C@@H]1CCCN1C(=O)[C@H](Cc1ccccc1)NC(=O)[C@H](CCCNC(=N)N)NC(=O)[C@H](CCCNC(=N)N)NC(=O)[C@@H](N)C(C)C)C(=O)N[C@@H](CCCNC(=N)N)C(=O)N[C@@H](CCCNC(=N)N)C(N)=O [Tritrp-Arg] | 4 µM (≈ 7.61 µg/mL) | 8 µM (≈ 15.2 µg/mL) | 1 µmol/L | 2 µmol/L | 2 µmol/L | 8 µmol/L | 2 µM (≈ 3.8 µg/mL) | 8 µmol/L | 16 µmol/L | 1 µmol/L | 2 µmol/L | 16 µmol/L | 32 µmol/L | 4 µM (≈ 7.61 µg/mL) | 8 µM (≈ 15.2 µg/mL) | 32 µmol/L | 8 µmol/L | 32 µmol/L | 0.5 µM (≈ 0.951 µg/mL) | 2 µM (≈ 3.8 µg/mL) | MBIC (CV at 595 nm) LD50 (P. aeruginosa PAO1 [9]; PAO1): 4 µmol/L
4 | CC(C)C[C@H](NC(=O)[C@H](Cc1ccccc1)NC(=O)[C@@H]1CCCN1C(=O)[C@H](Cc1c[nH]c2ccccc12)NC(=O)[C@H](Cc1c[nH]c2ccccc12)NC(=O)[C@H](Cc1c[nH]c2ccccc12)NC(=O)[C@@H]1CCCN1C(=O)[C@H](Cc1ccccc1)NC(=O)[C@H](CCCCN)NC(=O)[C@H](CCCCN)NC(=O)[C@@H](N)C(C)C)C(=O)N[C@@H](CCCCN)C(=O)N[C@@H](CCCCN)C(N)=O [Tritrp-Lys] (H-VKKFPWWWPFLKK-NH2) | 32 µM (≈ 57.3 µg/mL) | 32 µM (≈ 57.3 µg/mL) | 1 µmol/L | 2 µmol/L | 16 µmol/L | 32 µmol/L | 4 µM (≈ 7.16 µg/mL) | 64 µmol/L | 64 µmol/L | 2 µmol/L | 2 µmol/L | 128 µmol/L | 128 µmol/L | 32 µM (≈ 57.3 µg/mL) | 32 µM (≈ 57.3 µg/mL) | 64 µmol/L | 32 µmol/L | 64 µmol/L | 1 µM (≈ 1.79 µg/mL) | 2 µM (≈ 3.58 µg/mL) | MBIC (CV at 595 nm) LD50 (P. aeruginosa PAO1 [9]; [11]): 32 µmol/L
